We go through six compounds from patent US20190246646A1 (priority 2016, published 2019).

Assay [1] deals with M. oryzae BOA102. As to conditions: grown in the presence of Tricyclazole.
The next assay has as its system M. oryzae mycelium. As to conditions: compound added to fungal growth media; untreated black; cited from earlier work.
Assay [2] concerns M. oryzae BOA102. As to conditions: for mycelium color / phenotype of the fungal colony: BOA102 exposed to single commercial compound, dual plate; for mycelium growth measured as colony diameter: Student T-test p<0.05.

Consider `Cc1cccc2sc3nncn3c12` [Tricyclazole], for which the “color of the mycelium (DHN melanin inhibition phenotype)” value in the assay on M. oryzae BOA102 [1] is “orange color”. In addition, the “pigmentation of M. oryzae mycelium” value in the assay with M. oryzae mycelium is “orange”. As to `CC(=O)OCCC(C)C` [1-butanol-3-methyl-acetate], in the assay on M. oryzae BOA102 [2], the “mycelium color / phenotype of the fungal colony” value (from here on “mycelium color / phenotype”) is reported as “do not induce appreciable phenotype/color variations” and the “mycelium growth measured as colony diameter” value (shortened to “mycelium growth measured”) was “significant reduction”. For the compound `CCO` [ethanol], in the assay on M. oryzae BOA102 [2], the “mycelium color / phenotype” value is “do not induce appreciable phenotype/color variations” and the “mycelium growth measured” value is “No effect”.

In the case of `CC(C)CCO` [1-butanol-3-methyl], in the assay with M. oryzae BOA102 [2], the “mycelium color / phenotype” value is listed as “shift from black to white” and the “mycelium growth measured” value is “significant reduction”. With `CC(C)CO` [1-propanol-2-methyl], in the assay on M. oryzae BOA102 [2], the “mycelium color / phenotype” value is reported as “do not induce appreciable phenotype/color variations” and the “mycelium growth measured” value is on record as “significant reduction”. Turning to `Cc1ccc(C(=O)NC[C@@H](NC(=O)OCC(F)(F)F)C(C)C)cc1` [Tolprocab], the “pigmentation of M. oryzae mycelium” value in the assay on M. oryzae mycelium is on record as “white”.
